ChEMBL document CHEMBL4627246, “Pyroglutamide-Based P2X7 Receptor Antagonists Targeting Inflammatory Bowel Disease” (J Med Chem, 2020)

Experiments:
Assay type in all cases: cell-based
M14 = test: Cytotoxicity against human M14 cells assessed as effect on cell growth at 10 uM incubated for 48 hrs by sulforhodamine B assay; conditions: m14, 48 h
Malme-3M = test: Cytotoxicity against human MALME-3M cells assessed as effect on cell growth at 10 uM incubated for 48 hrs by sulforhodamine B assay
NCI-H23 = test: Cytotoxicity against human NCI-H23 cells assessed as effect on cell growth at 10 uM incubated for 48 hrs by sulforhodamine B assay; conditions: nci-h23, 48 h
NCI-H460 = test: Cytotoxicity against human NCI-H460 cells assessed as effect on cell growth at 10 uM incubated for 48 hrs by sulforhodamine B assay; conditions: nci-h460, 48 h
HOP-92 = test: Cytotoxicity against human HOP92 cells assessed as effect on cell growth at 10 uM incubated for 48 hrs by sulforhodamine B assay; conditions: hop-92, 48 h
PC-3 = test: Cytotoxicity against human PC3 cells assessed as effect on cell growth at 10 uM incubated for 48 hrs by sulforhodamine B assay; conditions: pc-3, 48 h
COLO 205 = test: Cytotoxicity against human COLO205 cells assessed as effect on cell growth at 10 uM incubated for 48 hrs by sulforhodamine B assay; conditions: colo 205, 48 h
CAKI-1 = test: Growth inhibition of human Caki1 cells assessed as growth percentage at 10 uM incubated for 48 hrs by sulforhodamine B assay; conditions: caki-1, 48 h
Hs-578T = test: Cytotoxicity against human Hs 578T cells assessed as effect on cell growth at 10 uM incubated for 48 hrs by sulforhodamine B assay
OVCAR-8 = test: Cytotoxicity against human OVCAR8 cells assessed as effect on cell growth at 10 uM incubated for 48 hrs by sulforhodamine B assay; conditions: ovcar-8, 48 h
TK-10 = test: Cytotoxicity against human TK10 cells assessed as effect on cell growth at 10 uM incubated for 48 hrs by sulforhodamine B assay; conditions: tk-10, 48 h
MDA-MB-435 = test: Cytotoxicity against human MDA-MB-435 cells assessed as effect on cell growth at 10 uM incubated for 48 hrs by sulforhodamine B assay; conditions: mda-mb-435, 48 h
NCI-H322M = test: Cytotoxicity against human NCI-H322M cells assessed as effect on cell growth at 10 uM incubated for 48 hrs by sulforhodamine B assay
NCI-H226 = test: Cytotoxicity against human NCI-H226 cells assessed as effect on cell growth at 10 uM incubated for 48 hrs by sulforhodamine B assay; conditions: nci-h226, 48 h
SR = test: Cytotoxicity against human SR cells assessed as effect on cell growth at 10 uM incubated for 48 hrs by sulforhodamine B assay
MDA-MB-468 = test: Cytotoxicity against human MDA-MB-468 cells assessed as effect on cell growth at 10 uM incubated for 48 hrs by sulforhodamine B assay; conditions: mda-mb-468, 48 h
BT-549 = test: Cytotoxicity against human BT549 cells assessed as effect on cell growth at 10 uM incubated for 48 hrs by sulforhodamine B assay; conditions: bt-549, 48 h
U-251 = test: Cytotoxicity against human U251 cells assessed as effect on cell growth at 10 uM incubated for 48 hrs by sulforhodamine B assay; conditions: u-251, 48 h
KM12 = test: Cytotoxicity against human KM12 cells assessed as effect on cell growth at 10 uM incubated for 48 hrs by sulforhodamine B assay; conditions: km12, 48 h
SF-295 = test: Cytotoxicity against human SF295 cells assessed as effect on cell growth at 10 uM incubated for 48 hrs by sulforhodamine B assay; conditions: sf-295, 48 h

Measured: Activity

O=C(NCc1ccccc1Cl)[C@@H]1CCC(=O)N1c1ccccc1
Non-Toxic: all assays above

O=C1CCCC(C(=O)NCc2ccc(Cl)cc2Cl)N1 (stereo not given)
Non-Toxic: all assays above

CN(C)/C=C1\C[C@H]2C(=O)N(Cc3ccc(Cl)cc3Cl)C(N(C)C)N2C1=O (stereo not given in full)
Non-Toxic: all assays above

O=C(Nc1ccc(Cl)cc1Cl)[C@@H]1CCC(=O)N1Cc1ccccc1Cl
Non-Toxic: all assays above

O=C1N[C@H](C(=O)NCc2ccc(Cl)cc2Cl)C/C1=N\O (stereo in doubt)
Non-Toxic: all assays above

O=C(NCc1ccc(Cl)cc1Cl)[C@@H]1CCC(=O)N1c1nccs1
Non-Toxic: all assays above

O=C(NCc1ccc(Cl)cc1Cl)[C@@H]1CCC(=O)N1c1ccc(Cl)cc1
Non-Toxic: all assays above

O=C(NCc1ccccc1Cl)[C@@H]1CCC(=O)N1Cc1ccc(Cl)cc1
Non-Toxic: all assays above

O=C(NCc1ccc(Cl)cc1Cl)[C@@H]1CCC(=O)N1c1ccsc1
Non-Toxic: all assays above

O=C(NCCc1ccccc1)[C@@H]1CCC(=O)N1Cc1ccc(Cl)cc1Cl
Non-Toxic: all assays above

COc1ccc(NC(=O)[C@@H]2CCC(=O)N2)cc1OC
Non-Toxic: all assays above

O=C(NCc1ccc(Cl)cc1Cl)c1ccccn1
Non-Toxic: all assays above

COC(=O)[C@@H]1C/C(=C\NCc2ccc(Cl)cc2Cl)C(=O)N1C(=O)OC
Non-Toxic: all assays above

COc1ccc(CNC(=O)[C@@H]2CCC(=O)N2Cc2ccc(Cl)cc2Cl)c(OC)c1
Non-Toxic: all assays above
